Data taken from ChEMBL document CHEMBL5550200, “Back-Pocket Optimization of 2-Aminopyrimidine-Based Macrocycles Leads to Potent EPHA2/GAK Kinase Inhibitors” (J Med Chem, 2024).

Assays:
Ephrin type-A receptor 4 = Ephrin type-A receptor 4 (Homo sapiens, UniProt P54764); assay: Induction of stabilization of recombinant EPHA4 (unknown origin) assessed as change in melting temperature by differential scanning fluorimetry assay
[1] = target: Ephrin type-A receptor 7 (Homo sapiens) (UniProt Q15375); assay: Induction of stabilization of recombinant EPHA7 (unknown origin) assessed as change in melting temperature by differential scanning fluorimetry assay
Ephrin type-A receptor 7 (Homo sapiens), sequence (Q15375 28-998 limits assumed): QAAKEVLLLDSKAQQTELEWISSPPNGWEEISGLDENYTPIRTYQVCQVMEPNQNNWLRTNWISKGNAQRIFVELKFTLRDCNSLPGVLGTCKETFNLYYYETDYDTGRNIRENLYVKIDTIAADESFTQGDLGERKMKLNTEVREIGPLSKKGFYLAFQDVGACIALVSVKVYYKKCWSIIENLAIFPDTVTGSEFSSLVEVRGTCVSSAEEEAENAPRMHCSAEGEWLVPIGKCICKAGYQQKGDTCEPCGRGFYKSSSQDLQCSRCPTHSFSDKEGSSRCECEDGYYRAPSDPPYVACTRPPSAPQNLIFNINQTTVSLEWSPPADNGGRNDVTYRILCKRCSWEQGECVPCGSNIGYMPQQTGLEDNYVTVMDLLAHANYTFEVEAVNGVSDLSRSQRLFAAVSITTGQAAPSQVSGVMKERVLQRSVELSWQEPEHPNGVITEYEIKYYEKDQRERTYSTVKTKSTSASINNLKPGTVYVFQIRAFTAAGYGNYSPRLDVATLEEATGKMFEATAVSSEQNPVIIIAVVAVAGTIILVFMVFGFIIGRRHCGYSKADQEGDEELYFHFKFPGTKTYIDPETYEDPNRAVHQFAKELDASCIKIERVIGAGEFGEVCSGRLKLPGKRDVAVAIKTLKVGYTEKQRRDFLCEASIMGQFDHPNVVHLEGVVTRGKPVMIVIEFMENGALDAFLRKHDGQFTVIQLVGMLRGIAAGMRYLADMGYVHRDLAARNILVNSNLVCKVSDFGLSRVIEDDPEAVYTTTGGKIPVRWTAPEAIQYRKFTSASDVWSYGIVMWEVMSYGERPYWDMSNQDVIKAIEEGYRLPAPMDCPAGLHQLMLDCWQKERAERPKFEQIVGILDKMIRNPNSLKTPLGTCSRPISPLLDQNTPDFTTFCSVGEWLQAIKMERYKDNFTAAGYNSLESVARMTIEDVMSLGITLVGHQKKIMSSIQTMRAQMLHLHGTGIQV

[2] = target: T1, Ephrin type-B receptor 1 (Homo sapiens) (UniProt P54762); assay: Induction of stabilization of recombinant EPHB1 (unknown origin) assessed as change in melting temperature by differential scanning fluorimetry assay
T1 sequence (whole entry): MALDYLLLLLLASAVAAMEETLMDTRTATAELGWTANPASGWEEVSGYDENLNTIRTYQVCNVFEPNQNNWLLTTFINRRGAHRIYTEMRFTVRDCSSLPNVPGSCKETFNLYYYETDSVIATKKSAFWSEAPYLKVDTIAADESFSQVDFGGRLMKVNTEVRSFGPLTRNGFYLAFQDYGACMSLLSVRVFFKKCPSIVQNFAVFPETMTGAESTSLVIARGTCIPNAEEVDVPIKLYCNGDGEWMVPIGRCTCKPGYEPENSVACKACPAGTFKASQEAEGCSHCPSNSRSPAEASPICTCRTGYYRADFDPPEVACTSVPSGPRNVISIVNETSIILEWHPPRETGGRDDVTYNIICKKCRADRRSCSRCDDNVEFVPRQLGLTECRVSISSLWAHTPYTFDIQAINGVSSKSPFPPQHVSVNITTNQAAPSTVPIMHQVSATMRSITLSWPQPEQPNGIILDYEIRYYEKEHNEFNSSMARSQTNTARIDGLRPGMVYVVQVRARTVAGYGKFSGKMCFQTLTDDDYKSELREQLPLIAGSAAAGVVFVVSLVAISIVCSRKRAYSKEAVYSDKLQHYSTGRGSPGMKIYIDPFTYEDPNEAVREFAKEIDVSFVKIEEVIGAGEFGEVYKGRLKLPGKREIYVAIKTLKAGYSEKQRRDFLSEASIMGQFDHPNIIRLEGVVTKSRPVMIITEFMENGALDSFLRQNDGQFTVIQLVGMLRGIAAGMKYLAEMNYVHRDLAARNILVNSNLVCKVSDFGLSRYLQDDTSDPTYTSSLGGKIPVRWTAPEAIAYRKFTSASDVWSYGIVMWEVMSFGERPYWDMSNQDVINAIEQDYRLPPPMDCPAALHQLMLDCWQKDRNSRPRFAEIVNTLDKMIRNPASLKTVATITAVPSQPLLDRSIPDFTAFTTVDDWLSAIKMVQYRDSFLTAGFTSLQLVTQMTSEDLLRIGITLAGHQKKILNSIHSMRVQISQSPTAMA

[3] = target: T2, Ephrin type-B receptor 3 (Homo sapiens) (UniProt P54753); assay: Induction of stabilization of recombinant EPHB3 (unknown origin) assessed as change in melting temperature by differential scanning fluorimetry assay
T2 sequence (whole entry): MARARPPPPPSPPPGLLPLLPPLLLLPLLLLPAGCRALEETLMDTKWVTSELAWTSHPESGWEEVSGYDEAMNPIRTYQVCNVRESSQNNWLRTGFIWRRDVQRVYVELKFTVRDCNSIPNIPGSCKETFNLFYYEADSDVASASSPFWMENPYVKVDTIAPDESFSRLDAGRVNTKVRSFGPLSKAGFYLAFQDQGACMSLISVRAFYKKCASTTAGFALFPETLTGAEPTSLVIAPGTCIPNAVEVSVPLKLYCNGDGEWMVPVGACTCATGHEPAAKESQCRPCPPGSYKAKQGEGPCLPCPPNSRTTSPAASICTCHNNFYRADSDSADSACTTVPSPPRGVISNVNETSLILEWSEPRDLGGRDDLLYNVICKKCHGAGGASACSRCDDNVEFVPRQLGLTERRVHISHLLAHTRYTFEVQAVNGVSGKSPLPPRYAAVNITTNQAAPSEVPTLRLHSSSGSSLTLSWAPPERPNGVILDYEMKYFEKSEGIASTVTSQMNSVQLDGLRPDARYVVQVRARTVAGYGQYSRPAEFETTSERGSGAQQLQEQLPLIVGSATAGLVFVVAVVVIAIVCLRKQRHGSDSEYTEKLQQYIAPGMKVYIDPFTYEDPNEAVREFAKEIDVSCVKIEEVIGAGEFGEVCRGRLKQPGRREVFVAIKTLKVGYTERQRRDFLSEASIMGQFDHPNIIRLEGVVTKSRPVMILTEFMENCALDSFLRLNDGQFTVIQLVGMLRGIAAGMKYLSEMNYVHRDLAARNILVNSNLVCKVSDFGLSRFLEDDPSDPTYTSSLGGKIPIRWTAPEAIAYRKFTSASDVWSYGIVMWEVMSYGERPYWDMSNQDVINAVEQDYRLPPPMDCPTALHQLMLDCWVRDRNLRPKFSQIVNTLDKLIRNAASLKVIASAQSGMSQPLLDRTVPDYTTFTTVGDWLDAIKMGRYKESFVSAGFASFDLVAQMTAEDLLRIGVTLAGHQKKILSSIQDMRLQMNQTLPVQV

[4] = target: Vascular endothelial growth factor receptor 1 (Homo sapiens, UniProt P17948); assay: Induction of stabilization of recombinant FLT1 (unknown origin) assessed as change in melting temperature by differential scanning fluorimetry assay
dengue virus type 2 = assay: Antiviral activity against DENV-2 New Guinea C infected in human Huh-7 cells assessed as reduction in virus induced cytopathic effect preincubated with cells for 1 hr followed by viral infection and measured after 45 to 48 hrs by luciferase assay; assay type: functional, organism-based; settings: for EC90: time 45-48 hrs
Huh-7 = assay: Cytotoxicity against human Huh-7 cells assessed as reduction in cell viability by alamar blue reagent based analysis; assay type: functional
Ephrin type-A receptor 2 = Ephrin type-A receptor 2 (Homo sapiens, UniProt P29317)
Ephrin type-A receptor 2, sequence (P29317 whole entry): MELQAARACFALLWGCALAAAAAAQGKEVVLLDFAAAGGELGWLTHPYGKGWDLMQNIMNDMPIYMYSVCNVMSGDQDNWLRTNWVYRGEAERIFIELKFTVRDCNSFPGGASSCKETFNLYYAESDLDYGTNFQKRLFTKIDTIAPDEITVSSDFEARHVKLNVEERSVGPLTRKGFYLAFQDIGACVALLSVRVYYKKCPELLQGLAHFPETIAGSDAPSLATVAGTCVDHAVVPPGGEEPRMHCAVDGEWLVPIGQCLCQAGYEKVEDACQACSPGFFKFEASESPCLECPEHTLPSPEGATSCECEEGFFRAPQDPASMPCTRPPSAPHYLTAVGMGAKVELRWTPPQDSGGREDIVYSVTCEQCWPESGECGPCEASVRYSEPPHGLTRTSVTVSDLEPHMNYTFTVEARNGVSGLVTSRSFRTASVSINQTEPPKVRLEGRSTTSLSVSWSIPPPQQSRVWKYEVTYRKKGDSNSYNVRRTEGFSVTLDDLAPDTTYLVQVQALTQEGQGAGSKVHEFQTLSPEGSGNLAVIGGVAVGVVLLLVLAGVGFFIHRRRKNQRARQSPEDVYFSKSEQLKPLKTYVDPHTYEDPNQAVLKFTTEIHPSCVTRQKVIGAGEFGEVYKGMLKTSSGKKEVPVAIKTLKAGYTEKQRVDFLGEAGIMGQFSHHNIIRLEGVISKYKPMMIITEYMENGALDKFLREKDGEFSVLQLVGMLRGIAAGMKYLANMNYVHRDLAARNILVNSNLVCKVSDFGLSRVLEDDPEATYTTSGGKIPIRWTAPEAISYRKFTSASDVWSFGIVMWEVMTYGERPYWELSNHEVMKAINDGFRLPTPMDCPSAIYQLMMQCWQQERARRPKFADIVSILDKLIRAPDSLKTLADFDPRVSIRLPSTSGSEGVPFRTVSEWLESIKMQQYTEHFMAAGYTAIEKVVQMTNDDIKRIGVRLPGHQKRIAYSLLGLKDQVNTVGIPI
Description: Induction of stabilization of recombinant EPHA2 (D596 to G900 residues) (unknown origin) expressed in Escherichia coli rosetta BL21(D3)-R3-pRARE2 competent cells assessed as change in melting temperature by differential scanning fluorimetry assay

[5] = target: Ephrin type-A receptor 5 (Homo sapiens) (UniProt P54756)
Description: Induction of stabilization of recombinant EPHA5 (unknown origin) assessed as change in melting temperature by differential scanning fluorimetry assay

[6] = target: Fibroblast growth factor receptor 1 (Homo sapiens, UniProt P11362)
Fibroblast growth factor receptor 1, sequence (P11362 22-822 limits assumed): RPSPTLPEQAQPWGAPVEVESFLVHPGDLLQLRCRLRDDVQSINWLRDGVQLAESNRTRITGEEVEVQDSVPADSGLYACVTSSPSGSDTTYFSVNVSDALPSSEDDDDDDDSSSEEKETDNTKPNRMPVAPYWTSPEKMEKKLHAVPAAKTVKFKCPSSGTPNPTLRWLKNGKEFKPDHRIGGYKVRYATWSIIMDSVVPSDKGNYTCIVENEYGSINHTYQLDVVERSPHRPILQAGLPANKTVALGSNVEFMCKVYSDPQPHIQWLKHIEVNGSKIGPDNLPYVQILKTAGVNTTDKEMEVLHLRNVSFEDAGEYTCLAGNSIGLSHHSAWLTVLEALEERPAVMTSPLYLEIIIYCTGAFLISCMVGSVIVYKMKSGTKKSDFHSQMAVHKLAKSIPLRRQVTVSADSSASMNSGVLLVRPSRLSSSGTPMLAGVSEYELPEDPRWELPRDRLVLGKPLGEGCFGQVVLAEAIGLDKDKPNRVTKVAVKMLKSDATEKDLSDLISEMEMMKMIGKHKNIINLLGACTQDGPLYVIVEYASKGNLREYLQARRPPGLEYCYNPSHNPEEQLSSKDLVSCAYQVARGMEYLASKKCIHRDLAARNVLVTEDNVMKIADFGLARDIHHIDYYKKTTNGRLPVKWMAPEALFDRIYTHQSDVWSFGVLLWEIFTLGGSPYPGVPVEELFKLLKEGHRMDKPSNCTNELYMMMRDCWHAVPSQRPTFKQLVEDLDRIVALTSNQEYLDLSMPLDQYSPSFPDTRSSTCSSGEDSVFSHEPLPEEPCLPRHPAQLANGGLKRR
Description: Induction of stabilization of recombinant FGFR1 (unknown origin) assessed as change in melting temperature by differential scanning fluorimetry assay

[7] = target: Fibroblast growth factor receptor 2 (Homo sapiens) (UniProt P21802)
Fibroblast growth factor receptor 2 (Homo sapiens), sequence (P21802 22-821 limits assumed): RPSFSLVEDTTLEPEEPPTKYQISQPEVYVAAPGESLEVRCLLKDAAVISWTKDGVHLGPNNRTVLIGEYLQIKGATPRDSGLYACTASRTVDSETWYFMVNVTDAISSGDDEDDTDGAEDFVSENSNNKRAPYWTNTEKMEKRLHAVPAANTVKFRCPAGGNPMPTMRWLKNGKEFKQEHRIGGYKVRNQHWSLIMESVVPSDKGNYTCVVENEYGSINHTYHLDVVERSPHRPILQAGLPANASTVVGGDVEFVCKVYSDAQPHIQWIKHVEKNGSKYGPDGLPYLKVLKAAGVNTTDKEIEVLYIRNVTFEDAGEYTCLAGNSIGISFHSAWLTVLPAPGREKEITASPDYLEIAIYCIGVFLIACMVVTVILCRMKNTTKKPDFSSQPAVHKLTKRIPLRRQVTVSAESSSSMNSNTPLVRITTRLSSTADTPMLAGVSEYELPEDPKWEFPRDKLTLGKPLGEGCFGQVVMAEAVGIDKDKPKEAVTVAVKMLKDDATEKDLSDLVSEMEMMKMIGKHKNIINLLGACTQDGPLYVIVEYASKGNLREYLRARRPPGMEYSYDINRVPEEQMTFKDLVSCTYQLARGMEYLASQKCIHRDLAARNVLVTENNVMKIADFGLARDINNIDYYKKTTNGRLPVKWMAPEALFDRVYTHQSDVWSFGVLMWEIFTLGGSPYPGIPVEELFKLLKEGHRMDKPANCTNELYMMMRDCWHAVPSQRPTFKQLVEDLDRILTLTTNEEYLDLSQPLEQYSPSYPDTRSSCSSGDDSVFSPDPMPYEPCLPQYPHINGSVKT
Description: Induction of stabilization of recombinant FGFR2 (unknown origin) assessed as change in melting temperature by differential scanning fluorimetry assay

Ephrin type-A receptor 4, sequence (P54764 whole entry): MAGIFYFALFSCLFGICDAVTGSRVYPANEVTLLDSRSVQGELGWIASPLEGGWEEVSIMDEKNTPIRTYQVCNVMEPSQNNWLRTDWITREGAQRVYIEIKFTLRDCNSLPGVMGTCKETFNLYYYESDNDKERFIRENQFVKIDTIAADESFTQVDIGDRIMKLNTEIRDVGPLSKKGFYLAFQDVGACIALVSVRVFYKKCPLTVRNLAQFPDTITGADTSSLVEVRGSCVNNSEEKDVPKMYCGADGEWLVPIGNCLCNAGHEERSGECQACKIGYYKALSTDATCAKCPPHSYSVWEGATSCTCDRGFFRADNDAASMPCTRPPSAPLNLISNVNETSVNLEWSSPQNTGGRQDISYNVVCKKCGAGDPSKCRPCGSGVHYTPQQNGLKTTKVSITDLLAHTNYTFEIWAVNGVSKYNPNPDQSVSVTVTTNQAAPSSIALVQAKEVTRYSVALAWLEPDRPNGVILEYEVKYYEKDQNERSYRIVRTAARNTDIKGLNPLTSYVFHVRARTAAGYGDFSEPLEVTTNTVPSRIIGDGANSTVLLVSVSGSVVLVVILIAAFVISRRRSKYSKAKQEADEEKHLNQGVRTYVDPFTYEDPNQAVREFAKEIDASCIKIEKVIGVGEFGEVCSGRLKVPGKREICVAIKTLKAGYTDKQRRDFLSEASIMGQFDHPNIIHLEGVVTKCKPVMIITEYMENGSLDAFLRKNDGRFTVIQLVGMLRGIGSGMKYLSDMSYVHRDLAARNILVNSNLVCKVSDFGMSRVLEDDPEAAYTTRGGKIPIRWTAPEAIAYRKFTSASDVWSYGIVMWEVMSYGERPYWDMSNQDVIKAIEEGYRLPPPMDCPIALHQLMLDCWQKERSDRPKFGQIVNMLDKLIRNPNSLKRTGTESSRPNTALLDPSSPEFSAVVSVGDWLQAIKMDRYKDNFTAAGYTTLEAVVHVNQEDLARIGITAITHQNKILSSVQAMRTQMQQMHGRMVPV

| deltaTm (Ephrin type-A receptor 4) | deltaTm [1] | deltaTm [2] | deltaTm [3] | deltaTm [4] | EC50 (dengue virus type 2) | EC90 (dengue virus type 2) | deltaTm (Ephrin type-A receptor 2) | deltaTm [5] | deltaTm [6] | deltaTm [7] | Compound | CC50 (Huh-7) |
| --- | --- | --- | --- | --- | --- | --- | --- | --- | --- | --- | --- | --- |
| 2.9 K | 2.4 K | 2.2 K | 3.2 K | 3.6 K | 3.7 µM | 9 µM | 6.2 K | 3.4 K | 2.8 K | 3.9 K | O=S1(=O)NCCCNc2nc(ncc2-c2ccc(Cl)c(Cl)c2)Nc2cccc1c2 | > 10 µM |
| 3.3 K | 0.3 K | 3.5 K | 4.2 K | 3 K | > 10 µM | > 10 µM | 7.9 K | 4.7 K | 1.9 K | 3 K | COc1cc(-c2cnc3nc2NCCCNS(=O)(=O)c2cc(ccc2O)N3)ccc1F | > 10 µM |
| 4.9 K | -2.5 K | 5.6 K | 4.8 K | 8.8 K | 1.8 µM | 2.9 µM | 8.8 K | 5.4 K | 5.2 K | 5.8 K | COc1c(F)ccc(-c2cnc3nc2NCCCNS(=O)(=O)c2cccc(c2)N3)c1F | 2.9 µM |
| 2.8 K | 0.4 K | 3.3 K | 3.9 K | 3.4 K | > 10 µM | > 10 µM | 6.9 K | 5 K | 2.7 K | 3.6 K | COc1cc(-c2cnc3nc2NCCCNS(=O)(=O)c2cccc(c2)N3)c(F)cc1F | > 10 µM |
